PMC4552634, “A New Set of Chemical Starting Points with Plasmodium falciparum Transmission-Blocking Potential for Antimalarial Drug Discovery” (PLoS ONE, 2015)
Read-outs that look alike come from different tables or passages of the source.

Test system: P. falciparum stage V gametocytes
Assay: microbe, parasite or virus in culture
Parameters: BacTiter-Glo ATP luminescence viability of purified stage V gametocytes in 384-well plates, per cent inhibition versus DMSO
[1] = Plasmodium falciparum, 48 h, read-out: % Inhibition
[2] = Plasmodium falciparum, 48 h; read-out: % Inhibition

`CCOc1ccc2c(N/N=C/c3cccc([N+](=O)[O-])c3)cc(C)nc2c1` [TCMDC-142195] showed an inhibition at 5 µM [1] of 115%.

`CCCCCCc1cc(OC)c(OC)cc1C(C)Nc1ccnc2cc(Cl)ccc12` (stereo not shown) [TCMDC-142247] gave an inhibition at 5 µM [1] of -55.2%.

Work on `COc1cc(C=NNc2cc(C)nc3c(OC)cccc23)cc(OC)c1OC` [TCMDC-142200] yielded an inhibition at 5 µM [1] of 84.3%.

`CCOc1ccc2c(NN=Cc3cccc(F)c3)cc(C)nc2c1` [TCMDC-142194] showed an inhibition at 5 µM [1] of -6.63%.

`Cc1c(N=O)cc(C(C)(C)C)c(O)c1C(=O)Nc1ccc([N+](=O)[O-])cc1Cl` [TCMDC-142233] was tested, and the inhibition at 5 µM [1] was 32.7%.

With `CCOc1ccc2c(NN=Cc3cc(OC)c(OC)cc3OC)cc(C)nc2c1` [TCMDC-142207] the inhibition at 5 µM [1] was 101%.

For `COc1ccc2c(NN=C(C)c3ccccn3)cc(C)nc2c1` [TCMDC-142239], the inhibition at 5 µM [1] was 103%.

Work on `Cc1ccccc1Nc1nc(Nc2ccccc2)c2ccccc2n1` [TCMDC-142324] yielded an inhibition at 5 µM [1] of 28.6%.

With `CCOC(=O)CCCN1C(=O)CN=C(c2ccccc2)c2cc(Cl)ccc21` [TCMDC-142274] the inhibition at 5 µM [2] was -8.73%.

In the case of `FC(F)(F)c1ccc2c(NN=Cc3cccc(Cl)c3)ccnc2c1` [TCMDC-142149], the inhibition at 5 µM [1] is reported as -44.9%.

In the case of `CCCC(=O)c1cnc2c(OCCCc3c[nH]cn3)cccc2c1Nc1c(C)cccc1C` [TCMDC-142338], the inhibition at 5 µM [1] is reported as 28.2%.

In the case of `NC(=NCc1ccccc1)Nc1nc(-c2ccc(OCCCn3ccnc3)cc2)cs1` [TCMDC-142335], the inhibition at 5 µM [1] is reported as 8.33%.

Work on `CCCCCCCc1cc(O)c2c(c1)OC(C)(C)c1ccncc1-2` [TCMDC-142259] yielded an inhibition at 5 µM [2] of 6.2%.

`COc1ccc2c(NN=Cc3cccc(F)c3)ccnc2c1` [TCMDC-142134] showed an inhibition at 5 µM [1] of 99%.

`CCCCCc1cc(O)c2c(c1)OC(C)(C)c1ccncc1-2` [TCMDC-142255] was tested, and the inhibition at 5 µM [2] was -24.7%.

`Nc1c2c(nc3ccc(C(=O)Nc4ccccc4)cc13)CCCC2` [TCMDC-142284] was tested, and the inhibition at 5 µM [1] was 39.7%.

`CCOc1ccc2c(NN=Cc3ccccn3)cc(C)nc2c1` [TCMDC-142187] showed an inhibition at 5 µM [1] of 20.9%.

`CC(C)(C)CC(C)(C)c1ccc(O)c(C(=O)Nc2ccc([N+](=O)[O-])cc2)c1` [TCMDC-142211] showed an inhibition at 5 µM [1] of -13%.

For `Cc1cc(F)ccc1Nc1nc(N(C)c2ccccc2)c2cc(OCCCN(C)C)ccc2n1` [TCMDC-142332], the inhibition at 5 µM [1] was 57.7%.

For `Fc1ccccc1C=NNc1ccnc2ccccc12` [TCMDC-142101], the inhibition at 5 µM [1] was -64.6%.

Work on `CC1(C)N=C(N)N=C(N)N1c1ccc(Cl)c(Cl)c1` [TCMDC-142180] yielded an inhibition at 5 µM [1] of 61.6%.

`COc1ccc2ccccc2c1C=NNc1cc(C)nc2c(C)cccc12` [TCMDC-142234] was tested, and the inhibition at 5 µM [1] was 35.2%.

`Fc1ccc(C2N=C(SCCSC3=NC(c4ccc(F)cc4)C(c4ccc(F)cc4)N3)NC2c2ccc(F)cc2)cc1` (stereo not shown) [TCMDC-142269] gave an inhibition at 5 µM [1] of -7.65%.

In the case of `COc1ccc2nccc(NN=Cc3ccccc3F)c2c1` [TCMDC-142130], the inhibition at 5 µM [1] is reported as 6.1%.

`Cc1cc(F)ccc1Nc1nc(N(C)c2ccccc2)c2cccc(OCCO)c2n1` [TCMDC-142334] showed an inhibition at 5 µM [1] of 32.7%.

For `COc1cccc2c(NN=Cc3cccc(F)c3)ccnc12` [TCMDC-142107], the inhibition at 5 µM [1] was 74.3%.

`Nc1c2c(nc3ccc(C(=O)Nc4cc(I)c(O)c(I)c4)cc13)CCCC2` [TCMDC-142292] showed an inhibition at 5 µM [1] of -1.08%.

Work on `COc1ccc2c(NN=Cc3c(OC)ccc4ccccc34)cc(C)nc2c1` [TCMDC-142236] yielded an inhibition at 5 µM [1] of 103%.

`COc1cc2c(cc1OC)C(c1ccc(Br)cc1)CN(C)CC2` (stereo not shown) [TCMDC-142272] was tested, and the inhibition at 5 µM [1] was 20.3%.

`COc1cccc2c(N/N=C/c3ccc([N+](=O)[O-])cc3)ccnc12` [TCMDC-142109] showed an inhibition at 5 µM [1] of 64%.

Work on `Cc1cc(NN=Cc2ccccc2Cl)c2cc(F)ccc2n1` [TCMDC-142165] yielded an inhibition at 5 µM [1] of -39.2%.
